assay: Inhibition of human IL-17A binding to recombinant human Fc-tagged IL-17RA preincubated with IL-17A for 30 mins followed by receptor addition and measured after 90 mins by AlphaLISA plate reader analysis

Structure (SMILES)	IC50
CC1(C)CN(Cc2ccnc(NC(=O)[C@@H](NC(=O)c3nonc3C3CC3)[C@H]3CC[C@H](C)CC3)c2)C(=O)N1	105 nM
COCC(NC(=O)CCC(F)(F)F)c1ccnc(NC(=O)[C@@H](NC(=O)c2ccnn2C(C)C)C2CCC(F)(F)CC2)c1 (some centres undefined)	1360 nM
CC(C)(C)OC(=O)N[C@H](C(=O)Nc1cc(CN2C[C@@H](C(F)(F)F)NC2=O)ccn1)[C@H]1CC[C@H](C)CC1	148 nM
CCc1ncoc1C(=O)N[C@H](C(=O)Nc1cc(C[C@H]2C[C@@H](C(F)(F)F)NC2=O)ccn1)C1CCC(F)(F)CC1	465 nM
CC(C)n1nccc1C(=O)N[C@H](C(=O)Nc1cc(O[C@@H]2C[C@@H](C(F)(F)F)NC2=O)ccn1)[C@H]1CC[C@H](C)CC1	1210 nM
Cn1nccc1C(=O)N[C@H](C(=O)Nc1cc(OC2CCNC2=O)ccn1)[C@H]1CC[C@H](C)CC1 (some centres undefined)	8970 nM

These reach a lower IC50. Values come first.

IC50	Structure (SMILES)
11 nM	COCC(c1ccnc(NC(=O)[C@@H](NC(=O)c2nonc2C2CC2)[C@H]2CC[C@H](C)CC2)c1)N1C[C@@H](C(F)(F)F)NC1=O (some centres undefined)
4 nM	CCc1nonc1C(=O)N[C@H](C(=O)Nc1cc(C(COC)N2C[C@@H](C(F)(F)F)NC2=O)ccn1)[C@H]1CC[C@H](C)CC1 (some centres undefined)
6 nM	CC[C@H](c1ccnc(NC(=O)[C@H](NC(=O)c2ccnn2C)[C@H]2CC[C@H](C)CC2)c1)N1C[C@@H](C(F)(F)F)NC1=O
19 nM	CCc1nonc1C(=O)N[C@H](C(=O)Nc1cc([C@@H](COC)N2CC(F)(F)CNC2=O)ccn1)C1CCC(F)(F)CC1
25 nM	C[C@H]1CC[C@H]([C@H](NC(=O)c2nonc2C2CC2)C(=O)Nc2cc(CN3C[C@@H](C(F)(F)F)NC3=O)ccn2)CC1
18 nM	CCC[C@H](c1ccnc(NC(=O)[C@@H](NC(=O)c2nocc2CC)C2CCC(F)(F)CC2)c1)N1C[C@@H](C(F)(F)F)NC1=O
17 nM	CCc1nonc1C(=O)NC(C(=O)Nc1cc([C@@H](COC)N2C[C@@H](C(F)(F)F)NC2=O)ccn1)C1CCC(F)CC1 (some centres undefined)
51 nM	CCc1nocc1C(=O)N[C@H](C(=O)Nc1cc([C@@H](COC)N2C[C@@H](C(F)(F)F)NC2=O)ccn1)[C@H]1CCCC(F)(F)C1

— ChEMBL document CHEMBL6074706, “Inhibition of the Binding of Interleukin 17A with Interleukin 17A Receptor as a Treatment for Immune System and Inflammation Disorders, Cancer, and Neurodegenerative Diseases” (ACS Med Chem Lett, 2024)
